How the values were obtained:
[1] = test system: subjects with moderate to severe plaque psoriasis; assay: Phase III study of moderate to severe plaque psoriasis (Example 4), double-blind placebo-controlled core period and open-label extension; conditions: for HADS Anxiety Score, Mean / HADS Depression Score, Mean: Experimental group (N=211)
Experimental: Tablets of the compound shown in Example 2 with a strength of 15 mg per tablet.
Control Drug: Placebo tablets matching the investigational drug with a strength of 0 mg per tablet.
• 1) Aged ≥ 18 years at the time of signing the Informed Consent Form (ICF), of any gender. • 2) Clinically diagnosed with stable plaque psoriasis, with a psoriasis history of ≥ 6 months (prior to randomization). • 3) The following requirements are met at screening and baseline: • a. Psoriasis Area and Severity Index (PASI) score ≥ 12; and • b. Static Physician Global Assessment (sPGA) score ≥ 3 (based on an sPGA 0-4 scale); and • c.
The treatment period consisted of two phases: during the double-blind core treatment period, subjects received 60 mg BID of the investigational drug or placebo for 16 weeks (week 0 to week 16); during the open-label extension treatment period, all subjects received 60 mg BID of the investigational drug for 36 weeks (week 16 to week 52).
A total of 305 subjects were enrolled (211 in the experimental group and 94 in the placebo group; including 105 T-SPOT positive subjects without active tuberculosis, 7 subjects with previously confirmed pulmonary tuberculosis, 76 subjects with a history of tuberculosis, and 1 subject with a history of tuberculous pleurisy).
The primary efficacy endpoint was the proportion of subjects achieving PASI 75 at week 16 compared to baseline. The key secondary efficacy endpoint was an sPGA 0/1 with a reduction of ≥2 points from baseline at week 16. Other secondary efficacy endpoints included the proportion of subjects achieving PASI-90, PASI-75, PASI-50, and both PASI-75 and sPGA 0/1 with a ≥ 2-point reduction from baseline at each visit, as well as the rate of change in BSA. Clinical observation and evaluation were conducted over the 16-week core treatment period, the 36-week extension treatment period and the 4-week follow-up period. The Hospital Anxiety and Depression Scale (HADS) was used as an assessment tool to observe and evaluate the anxiety and depression status of subjects at screening, the end of the 16-week core period and 4 weeks after the last dose.

[2] = test system: patients with moderate to severe chronic plaque psoriasis; assay: Clinical study on patients (Example 3), 16-week core treatment period, 36-week extension, 4-week follow-up, placebo-controlled; assay type: in vivo, human
Experimental: This study selected patients with moderate to severe chronic plaque psoriasis as target subjects. Specific criteria were set for disease duration, severity and extent (psoriasis history ≥ 6 months, PASI score ≥ 12, sPGA score ≥ 3, and BSA ≥ 10). […] Primary efficacy endpoint: PASI-75 at week 16. […] Improvement in pruritus symptoms and changes in DLQI scores were also evaluated. The study consisted of a 16-week core treatment period, a 36-week extension treatment period and a 4-week follow-up period. Subjects in the experimental group received 60 mg BID of the compound in Example 2. During the extension treatment period, subjects in the placebo group also received 60 mg BID of the compound in Example 2.

[3] = test system: Patients with plaque psoriasis; assay: Multicenter, randomized, double-blind, placebo-parallel controlled dose study in plaque psoriasis (Example 5); assay type: in vivo, human; conditions: for PASI-75 response rate (%): week 16
Experimental: This was a multicenter, randomized, double-blind, placebo-parallel controlled study. A total of 216 subjects were enrolled and randomized in a 1:1:1:1 ratio into the low-dose group (15 mg BID), mid-dose group (30 mg BID), high-dose group (60 mg BID) of the investigational drug, and the placebo group for a 16-week core treatment period. Upon completion of the core treatment, subjects in the low, mid and high-dose groups maintained their original doses for a 36-week extension treatment period. Subjects in the placebo group were switched to the mid-dose group (30 mg BID) for the 36-week extension treatment after completing the core period. All subjects completed a total of 52 weeks of treatment. Subjects who completed 52 weeks of treatment or discontinued prematurely should enter a 4-week follow-up period. […]

healthy Chinese subjects = assay: Phase I clinical study, multiple oral doses (Example 6); assay type: in vivo, human; conditions: multiple oral doses of 15 mg BID, 30 mg BID, 60 mg BID, 75 mg BID; 36 healthy Chinese subjects
Experimental: A total of 36 healthy Chinese subjects participated in a phase I clinical study, in which multiple oral doses of 15 mg BID, 30 mg BID, 60 mg BID, 75 mg BID of the compound in Example 2, or a placebo were administered, respectively.

[4] = by the end of the clinical study
[5] = 16-week core treatment period, 60 mg BID, N=211

Question: How did the death events ([1]; 60 mg BID) turn out when `CCOc1cc([C@@H](CS(C)(=O)=O)N2C(=O)c3csc(NC(C)=O)c3C2=O)ccc1OC` [Example 2, (S)-N-[5-[1-(3-ethoxy-4-methoxyphenyl)-2-(methylsulfonyl)ethyl]-4,6-dioxo-5,6-dihydro-5H-thieno[3,4-c]pyrrol-1-yl]acetamide] was run?
Answer: No death events occurred

Question: And the “incidence of adverse reaction: diarrhea” value ([1]; 60 mg BID)?
Answer: 11.4%

Question: What about the “incidence of adverse reaction: dizziness” value ([1]; 60 mg BID) of the same molecule?
Answer: 9.0%

Question: What about the “incidence of adverse reaction: fatigue” value ([1]; 60 mg BID) of the same molecule?
Answer: 8.5%

Question: What about the “incidence of adverse reaction: headache” value ([1]; 60 mg BID) of the same molecule?
Answer: 8.1%

Question: What about the “incidence of adverse reaction: hypertriglyceridemia” value ([1]; 60 mg BID) of the same molecule?
Answer: 5.7%

Question: And the “incidence of adverse reaction: increased stool frequency” value ([1]; 60 mg BID)?
Answer: 10.4%

Question: What about the “incidence of adverse reaction: nausea” value ([1]; 60 mg BID) of the same molecule?
Answer: 23.7%

Question: What about the “incidence of adverse reaction: vomiting” value ([1]; 60 mg BID) of the same molecule?
Answer: 10.0%

Question: And the “severity of adverse events leading to discontinuation” value (from here on “severity of adverse events leading”) ([1]; 60 mg BID)?
Answer: Grade 1 or Grade 2

Question: What about the “severity of the primary adverse reactions” value ([1]; 60 mg BID) of the same molecule?
Answer: Grade 1 or Grade 2

Question: What about the “time of occurrence of gastrointestinal reactions and nervous system abnormalities” value ([1]; 60 mg BID) of the same molecule?
Answer: mostly occurred within the first two weeks of administration

Question: And the “tuberculosis activation (reactivation)” value ([1]; 105 T-SPOT positive subjects without active tuberculosis, 7 with previously confirmed pulmonary tuberculosis, 76 with history of tuberculosis, 1 with history of tuberculous pleurisy, by the end of the study)?
Answer: no instances of tuberculosis activation (reactivation) were observed

Question: What about the “HADS Anxiety Score, Mean” value ([1]; Week 16, 60 mg BID) of the same molecule?
Answer: 2.3

Question: What about the “HADS Depression Score, Mean” value ([1]; Week 16, 60 mg BID) of the same molecule?
Answer: 3.0

Question: What about the “HADS Anxiety Score, Mean” value ([1]; Week 56, 60 mg BID) of the same molecule?
Answer: 3.1

Question: And the “HADS Depression Score, Mean” value ([1]; Week 56, 60 mg BID)?
Answer: 3.8

Question: And the “chest X-ray or CT examinations” value ([1]; any of the subjects)?
Answer: No clinical abnormalities related to tuberculosis were found

Question: What about the “adverse events of depression or anxiety related to the investigational drug” value [1, 4] of the same molecule?
Answer: No adverse events of depression or anxiety related to the investigational drug were observed

Question: What about the “difference between the experimental group and the placebo group in mean HADS anxiety scores and mean HADS depression scores” value [1, 4] of the same molecule?
Answer: no statistically significant differences (P>0.05)

Question: And the “occurrences of depression or suicidal ideation” value (“occurrences” for short) [1, 4]?
Answer: no occurrences of depression or suicidal ideation

Question: And the “drug-related serious adverse events” value ([1]; core treatment period, 60 mg BID)?
Answer: No drug-related serious adverse events occurred

Question: What about the “PASI-50 efficacy endpoint in subjects who had failed prior adalimumab treatment” value ([1]; two subjects, 60 mg BID) of the same molecule?
Answer: both achieved the PASI-50 efficacy endpoint

Question: And the “BSA rate of change (%)” value ([1]; week 16, 60 mg BID, N=211)?
Answer: 65.0%

Question: And the “Both PASI-75 and sPGA 0/1 and reduction of ≥2 points from baseline (%)” value ([1]; week 16, 60 mg BID, N=211)?
Answer: 30.3%

Question: And the “DLQI change from baseline, (mean)” value ([1]; week 16, 60 mg BID, N=211)?
Answer: 5.38 points

Question: And the “PASI-50 (%)” value ([1]; week 16, 60 mg BID, N=211)?
Answer: 82.7%

Question: And the “PASI-75 (%)” value ([1]; week 16, 60 mg BID, N=211)?
Answer: 53.6%

Question: What about the “PASI-90 (%)” value ([1]; week 16, 60 mg BID, N=211) of the same molecule?
Answer: 32.5%

Question: What about the “sPGA score of 0/1 and reduction of ≥2 points from baseline (%)” value ([1]; week 16, 60 mg BID, N=211) of the same molecule?
Answer: 31.3%

Question: And the deaths ([2]; 60 mg BID)?
Answer: No deaths occurred

Question: And the “drug-related serious adverse events” value ([2]; 60 mg BID)?
Answer: No drug-related serious adverse events occurred

Question: And the “severity of adverse events leading” value ([2]; 60 mg BID)?
Answer: all Grade 1 or Grade 2

Question: What about the “severity of drug-related adverse events” value ([2]; 60 mg BID) of the same molecule?
Answer: primarily Grade 1 or Grade 2

Question: And the “Secondary Efficacy Indicators, difference compared to the placebo group” value ([2]; 60 mg BID, P<0.0001)?
Answer: statistically significant differences

Question: What about the “DLQI (LS mean)” value [2, 5] of the same molecule?
Answer: 5.38 points

Question: And the PASI-90 [2, 5]?
Answer: 32.5%

Question: And the tuberculosis reactivation ([2]; T-SPOT positive but non-active TB subjects, by the end of the clinical study)?
Answer: no tuberculosis reactivation occurred

Question: And the “occurrences” value ([2]; by the end of the clinical study, any subjects)?
Answer: no occurrences of depression or suicidal ideation were observed

Question: And the “proportion of subjects achieving PASI-75” value ([2]; week 16, 60 mg BID, N=211)?
Answer: 53.6%

Question: And the “rate difference between the two groups (PASI-75)” value ([2]; week 16, Example 2 group vs placebo group)?
Answer: 37.6%

Question: What about the Chest imaging examinations ([2]; week 16 visit, T-SPOT positive but non-active TB subjects) of the same molecule?
Answer: no abnormalities

Question: What about the “DLQI score change from baseline, Mean” value ([3]; 15mg BID Group (N=54)) of the same molecule?
Answer: 4.9

Question: What about the “PASI-50 response rate (%)” value ([3]; 15mg BID Group (N=54)) of the same molecule?
Answer: 42.59%

Question: What about the “PASI-75 & sPGA 0/1 score (%)” value ([3]; 15mg BID Group (N=54)) of the same molecule?
Answer: 12.96%

Question: And the “PASI-90 response rate (%)” value ([3]; 15mg BID Group (N=54))?
Answer: 16.67%

Question: And the “sPGA 0/1 score (%)” value ([3]; 15mg BID Group (N=54))?
Answer: 14.81%

Question: And the “DLQI score change from baseline, Mean” value ([3]; 30mg BID Group (N=54))?
Answer: 6.1

Question: What about the “PASI-50 response rate (%)” value ([3]; 30mg BID Group (N=54)) of the same molecule?
Answer: 51.85%

Question: What about the “PASI-75 & sPGA 0/1 score (%)” value ([3]; 30mg BID Group (N=54)) of the same molecule?
Answer: 14.81%

Question: What about the “PASI-90 response rate (%)” value ([3]; 30mg BID Group (N=54)) of the same molecule?
Answer: 11.11%

Question: What about the “sPGA 0/1 score (%)” value ([3]; 30mg BID Group (N=54)) of the same molecule?
Answer: 14.81%

Question: And the “DLQI score change from baseline, Mean” value ([3]; 60mg BID Group (N=54))?
Answer: 7.1

Question: What about the “PASI-50 response rate (%)” value ([3]; 60mg BID Group (N=54)) of the same molecule?
Answer: 62.96%

Question: And the “PASI-75 & sPGA 0/1 score (%)” value ([3]; 60mg BID Group (N=54))?
Answer: 24.07%

Question: And the “PASI-90 response rate (%)” value ([3]; 60mg BID Group (N=54))?
Answer: 20.37%

Question: And the “sPGA 0/1 score (%)” value ([3]; 60mg BID Group (N=54))?
Answer: 24.07%

Question: And the “Population pharmacokinetics and exposure-response analysis” value ([3]; 15, 30, 60 mg BID)?
Answer: the efficacy response rate increased with increasing doses

Question: And the death events ([3]; 15, 30, 60 mg BID)?
Answer: No death events occurred

Question: What about the “adverse events of depression or anxiety” value [3, 4] of the same molecule?
Answer: no adverse events of depression or anxiety were reported

Question: And the “occurrences” value [3, 4]?
Answer: no occurrences of depression or suicidal ideation were observed

Question: And the “drug-related serious adverse events” value ([3]; core treatment period)?
Answer: No drug-related serious adverse events occurred

Question: And the “Adverse events with an incidence of ≥10%” value ([3]; double-blind core treatment period (weeks 1 to 16))?
Answer: diarrhea, nausea, headache, and fatigue

Question: What about the “drug-related adverse events with an incidence of ≥5% in any of the low, medium or high-dose groups” value ([3]; double-blind core treatment period (weeks 1 to 16), 15, 30, 60 mg BID) of the same molecule?
Answer: increased triglycerides, increased lipids, diarrhea, nausea, abdominal discomfort, hyperlipidemia, headache, and fatigue

Question: What about the “severity of adverse events leading” value ([3]; in vivo) of the same molecule?
Answer: Grade 1 or Grade 2

Question: What about the “PASI-75 and PASI-90 efficacy endpoints in a subject who had failed adalimumab therapy” value ([3]; one subject) of the same molecule?
Answer: also achieved the PASI-75 and PASI-90 efficacy endpoints

Question: And the “PASI-50 efficacy endpoint in subjects who had failed prior biologic therapy” value ([3]; one subject failed adalimumab, one failed secukinumab, one failed TNF-α monoclonal antibody therapy)?
Answer: all achieved the PASI-50 efficacy endpoint

Question: And the “PASI-75 response rate (%)” value ([3]; 15mg BID Group (N=54))?
Answer: 18.52%

Question: And the “PASI-75 response rate (%)” value ([3]; 30mg BID Group (N=54))?
Answer: 25.93%

Question: And the “PASI-75 response rate (%)” value ([3]; 60mg BID Group (N=54))?
Answer: 46.30%

Question: What about the safety and tolerability (healthy Chinese subjects) of the same molecule?
Answer: good safety and tolerability

Reference: EP4810035A1, “TREATMENT OF MODERATE TO SEVERE PLAQUE PSORIASIS” (Ganzhou Hemay Pharmaceutical, Co., Ltd, priority 2023, dated 2025)
